ChEMBL document CHEMBL1201862, “PubChem BioAssay data set” (2004)
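48-hour exposure; five concentrations; linearly interpolated endpoints. Here, GI50 denotes the concentration required for 50% inhibition of growth.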 Active and inactive are the calls of the source. Cut-off read from the data, not from the text of the source: active = GI50 up to about 1.1 µM and inactive = higher.

Tests used:
Assay in all cases: DTP human tumour cell line panel, 48 h
SF-268 = tested on: SF-268
BT-549 = tested on: BT-549
OVCAR-5 = tested on: OVCAR-5
PC-3 = tested on: PC-3
UACC-257 = tested on: UACC-257
U-251 = tested on: U-251
SK-OV-3 = tested on: SK-OV-3
HCT-116 = tested on: HCT-116
SW-620 = tested on: SW-620
MCF7 = tested on: MCF7
HCT-15 = tested on: HCT-15
NCI-H226 = tested on: NCI-H226
MOLT-4 = tested on: MOLT-4
SK-MEL-28 = tested on: SK-MEL-28
SF-295 = tested on: SF-295
RXF 393 = tested on: RXF 393
NCI-H23 = tested on: NCI-H23
MDA-N = tested on: MDA-N
786-0 = tested on: 786-0
EKVX = tested on: EKVX
MDA-MB-435 = tested on: MDA-MB-435
SR = tested on: SR
COLO 205 = tested on: COLO 205
CAKI-1 = tested on: CAKI-1
UO-31 = tested on: UO-31
SK-MEL-5 = tested on: SK-MEL-5
A549 = tested on: A549
HOP-92 = tested on: HOP-92
OVCAR-4 = tested on: OVCAR-4
K562 = tested on: K562
HL-60 = tested on: HL-60
MDA-MB-231 = tested on: MDA-MB-231
M14 = tested on: M14
DU-145 = tested on: DU-145
T47D = tested on: T47D
Hs-578T = tested on: Hs-578T
UACC-62 = tested on: UACC-62
TK-10 = tested on: TK-10
Malme-3M = tested on: Malme-3M
SNB-75 = tested on: SNB-75
SF-539 = tested on: SF-539
NCI-H460 = tested on: NCI-H460
ACHN = tested on: ACHN
NCI/ADR-RES = tested on: NCI/ADR-RES
SK-MEL-2 = tested on: SK-MEL-2
KM12 = tested on: KM12
HT-29 = tested on: HT-29
RPMI-8226 = tested on: RPMI-8226
LOX IMVI = tested on: LOX IMVI
IGROV-1 = tested on: IGROV-1
HOP-62 = tested on: HOP-62
OVCAR-3 = tested on: OVCAR-3
OVCAR-8 = tested on: OVCAR-8
SN12C = tested on: SN12C
SNB-19 = tested on: SNB-19
A498 = tested on: A498
NCI-H522 = tested on: NCI-H522
CCRF-CEM = tested on: CCRF-CEM

Measured: GI50

CC(=O)Nc1nc(O)c2nc(C=O)cnc2n1
inactive: SF-268 > 100 µM | BT-549 > 100 µM | OVCAR-5 > 100 µM | PC-3 > 100 µM | UACC-257 > 100 µM | U-251 > 100 µM | SK-OV-3 > 100 µM | HCT-116 > 100 µM | SW-620 > 100 µM | MCF7 > 100 µM | NCI-H226 > 100 µM | MOLT-4 > 100 µM | SK-MEL-28 > 100 µM | SF-295 > 100 µM | RXF 393 > 100 µM | NCI-H23 > 100 µM | MDA-N > 100 µM | 786-0 > 100 µM | EKVX > 100 µM | MDA-MB-435 > 100 µM | SR > 100 µM | COLO 205 > 100 µM | CAKI-1 > 100 µM | UO-31 > 100 µM | SK-MEL-5 > 100 µM | A549 > 100 µM | HOP-92 > 100 µM | OVCAR-4 > 100 µM | K562 > 100 µM | HL-60 > 100 µM | MDA-MB-231 > 100 µM | M14 > 100 µM | DU-145 > 100 µM | T47D > 100 µM | Hs-578T > 100 µM | UACC-62 > 100 µM | TK-10 > 100 µM | Malme-3M > 100 µM | SNB-75 > 100 µM | SF-539 > 100 µM | NCI-H460 > 100 µM | ACHN > 100 µM | NCI/ADR-RES > 100 µM | SK-MEL-2 > 100 µM | KM12 > 100 µM | HT-29 > 100 µM | RPMI-8226 > 100 µM | LOX IMVI > 100 µM | IGROV-1 > 100 µM | HOP-62 > 100 µM | OVCAR-3 > 100 µM | OVCAR-8 > 100 µM | SN12C > 100 µM | SNB-19 > 100 µM | A498 > 100 µM | NCI-H522 > 100 µM
> 100 µM: HCT-15

NC(=O)C(c1ccccc1)N1OC2C(=O)N(Cc3ccccc3)C(=O)C2C1c1cccc(Oc2ccc(Cl)cc2)c1 (centres undefined)
30.4 µM: HCT-15
inactive: SF-268 35.8 µM | BT-549 34 µM | OVCAR-5 32.1 µM | PC-3 33.4 µM | CCRF-CEM 36.1 µM | UACC-257 36.6 µM | U-251 28.2 µM | SK-OV-3 60.7 µM | HCT-116 19.4 µM | SW-620 48.8 µM | MCF7 28 µM | NCI-H226 26.8 µM | MOLT-4 32.8 µM | SK-MEL-28 79.3 µM | SF-295 38.5 µM | RXF 393 17.5 µM | NCI-H23 36.2 µM | MDA-N 20.7 µM | 786-0 21.3 µM | EKVX 27.1 µM | MDA-MB-435 27 µM | SR 22.7 µM | COLO 205 17.5 µM | CAKI-1 14.9 µM | UO-31 2.73 µM | SK-MEL-5 15.9 µM | A549 31.4 µM | HOP-92 33 µM | OVCAR-4 27.8 µM | K562 26 µM | HL-60 23.4 µM | MDA-MB-231 37.1 µM | M14 23.6 µM | DU-145 33.1 µM | T47D 32.1 µM | Hs-578T 49.1 µM | UACC-62 15.8 µM | TK-10 30.9 µM | Malme-3M 42.9 µM | SNB-75 31.7 µM | SF-539 18.7 µM | NCI-H460 28.8 µM | ACHN 20.4 µM | NCI/ADR-RES 34 µM | SK-MEL-2 22.2 µM | KM12 28.3 µM | HT-29 18.2 µM | LOX IMVI 15.7 µM | IGROV-1 36.5 µM | HOP-62 42.1 µM | OVCAR-3 19.9 µM | OVCAR-8 39.7 µM | SN12C 16.4 µM | SNB-19 37.1 µM | A498 52.1 µM | NCI-H522 28.7 µM

Cc1cc(C)cc(C(=N)c2ccccc2Cc2cccc3ccccc23)c1
inactive: SF-268 15.9 µM | BT-549 37.8 µM | OVCAR-5 16.6 µM | PC-3 45.8 µM | CCRF-CEM 9.73 µM | UACC-257 22.2 µM | U-251 40.6 µM | SK-OV-3 17.5 µM | HCT-116 10.1 µM | SW-620 15.2 µM | MCF7 16.2 µM | NCI-H226 14.6 µM | MOLT-4 9.64 µM | SK-MEL-28 16.9 µM | SF-295 11 µM | RXF 393 17.3 µM | NCI-H23 15.7 µM | MDA-N 21.1 µM | 786-0 15.2 µM | EKVX 16.7 µM | MDA-MB-435 17.2 µM | SR 14.2 µM | COLO 205 21.3 µM | CAKI-1 19.5 µM | UO-31 26.4 µM | SK-MEL-5 16.6 µM | A549 16 µM | HOP-92 13.3 µM | OVCAR-4 15.8 µM | K562 16.3 µM | HL-60 13.3 µM | MDA-MB-231 > 100 µM | M14 16.5 µM | DU-145 16.2 µM | T47D 16.3 µM | Hs-578T 3.47 µM | UACC-62 13.9 µM | TK-10 25.6 µM | Malme-3M 12.8 µM | SF-539 16.1 µM | NCI-H460 13.5 µM | ACHN 16.6 µM | NCI/ADR-RES 20.2 µM | SK-MEL-2 37.8 µM | KM12 11.4 µM | HT-29 9.66 µM | RPMI-8226 20.3 µM | LOX IMVI 18 µM | IGROV-1 17.4 µM | HOP-62 18 µM | OVCAR-3 18.7 µM | OVCAR-8 18 µM | SN12C 17.7 µM | SNB-19 19.5 µM | A498 27.9 µM | NCI-H522 7.28 µM
16.1 µM: HCT-15

NS(=O)(=O)c1ccc(/N=N/c2cnc(O)c(O)c2)cc1
inactive: SF-268 43.2 µM | BT-549 42.5 µM | OVCAR-5 > 100 µM | PC-3 > 100 µM | CCRF-CEM 19.6 µM | UACC-257 23 µM | U-251 20.8 µM | SK-OV-3 > 100 µM | HCT-116 > 100 µM | SW-620 > 100 µM | MCF7 44.2 µM | NCI-H226 > 100 µM | MOLT-4 54 µM | SK-MEL-28 > 100 µM | SF-295 > 100 µM | RXF 393 95.3 µM | NCI-H23 64 µM | MDA-N > 100 µM | 786-0 > 100 µM | EKVX > 100 µM | MDA-MB-435 > 100 µM | SR 29.6 µM | COLO 205 95.3 µM | CAKI-1 > 100 µM | UO-31 > 100 µM | SK-MEL-5 78.2 µM | A549 > 100 µM | HOP-92 81.7 µM | OVCAR-4 50 µM | K562 > 100 µM | HL-60 > 100 µM | MDA-MB-231 > 100 µM | M14 81.3 µM | DU-145 78.2 µM | T47D 85.7 µM | Hs-578T 66.1 µM | UACC-62 43.1 µM | TK-10 > 100 µM | Malme-3M 29.8 µM | SNB-75 47.4 µM | SF-539 67.5 µM | NCI-H460 > 100 µM | ACHN > 100 µM | NCI/ADR-RES 94.2 µM | SK-MEL-2 52 µM | KM12 96.8 µM | HT-29 > 100 µM | RPMI-8226 > 100 µM | LOX IMVI 91.2 µM | IGROV-1 > 100 µM | HOP-62 > 100 µM | OVCAR-3 28.8 µM | OVCAR-8 76.2 µM | SN12C 51.9 µM | SNB-19 52.4 µM | A498 > 100 µM | NCI-H522 14.1 µM
> 100 µM: HCT-15
